Here are results for 20 molecules from patent US8802865B2 (Janssen Pharmaceutica, NV, priority 2006, dated 2014).

The subject of one assay is ventral prostate. Description: Ventral Prostate Weight in vivo Assay (inhibition of testosterone-enhanced tissue weight). The note with it: castrated male Sprague Dawley rats, test compound usually orally once daily with testosterone propionate s.c.; ventral prostate wet weight; criteria at 2 mg/day dosage. On the set-up: key: “active” in the Table below if the non weight adjusted prostate weight was ≦40 mg or the % Inhibition prostate weight, body weight adjusted was ≧40% @ 2 mg/day dosage; listed herein as “inactive” as they did not meet the specified criteria defined above. As for the experimental part:
(§1) Ventral Prostate and Levator Ani Weight in vivo Assay
(§2) Immature (approximately 50 g) castrated male Sprague Dawley rats (Charles River) were treated once daily for five days with test compound (usually given orally at 40 mg/kg in a volume of 0.3 mL, in 30% cyclodextrin or 0.5% methylcellulose vehicle) and with testosterone propionate (given subcutaneously by injection at the nape of the neck at 2 mg/kg, in a volume of 0.1 mL in sesame oil). On the sixth day, the rats were euthanized by asphyxiation in carbon dioxide. Ventral prostates and levator ani were removed and their wet weights determined. Test compound activity was determined as the percent inhibition of testosterone-enhanced tissue weights, with a vehicle-treated control group set to zero percent and a testosterone alone-treated control group set to 100%.
(§3) Mature (150- to 200-g) castrated male Sprague Dawley rats (Charles River) are similarly tested according to the procedure described above. The rats were dosed for two weeks, with 0.4 mg/kg testosterone propionate used as the positive control.
(§4) Representative compounds of the present invention were tested according to the procedure described above, with results as listed in Table 3 below. For effect on prostate—i.e. an antagonist—a test compound is listed as “active” in the Table below if the non weight adjusted prostate weight was ≦40 mg or the % Inhibition prostate weight, body weight adjusted was ≧40% @ 2 mg/day dosage. For effect on levator ani—i.e. an agonist—a test compound is listed as “active” in the Table below if the non weight adjusted levator ani weight was ≧40 mg or the % Stimulation levator ani weight, body weight adjusted was ≧40% at 2 mg/day dosage.

The test system of assay [1] is levator ani. Description: Levator Ani Weight in vivo Assay (stimulation of levator ani weight). Particulars: castrated male Sprague Dawley rats, test compound usually orally once daily with testosterone propionate s.c.; levator ani wet weight; criteria at 2 mg/day dosage. Also on record: key: “active” in the Table below if the non weight adjusted levator ani weight was ≧40 mg or the % Stimulation levator ani weight, body weight adjusted was ≧40% at 2 mg/day dosage; listed herein as “inactive” as they did not meet the specified criteria defined above. As for the experimental part: as §1, §2, §3, §4

In assay [2] the test system is levator ani. The description is as above. On the set-up: key: “active” in the Table below if the non weight adjusted prostate weight was ≦40 mg or the % Inhibition prostate weight, body weight adjusted was ≧40% @ 2 mg/day dosage; listed herein as “inactive” as they did not meet the specified criteria defined above. The note with it: castrated male Sprague Dawley rats, test compound usually orally once daily with testosterone propionate s.c.; levator ani wet weight; criteria at 2 mg/day dosage. How it is done:
as §1, §2, §3, §4

In the case of `C=CC(O)(c1nc2cc(Cl)c(Cl)cc2[nH]1)C(F)(F)F` (stereo not shown) [Compound 4, 2-(5,6-Dichloro-1H-benzoimidazol-2-yl)-1,1,1-trifluoro-but-3-en-2-ol], the Prostate antagonist entry in the assay on ventral prostate is “active”. The L.A. agonist entry in the assay on levator ani [1] is reported as “active”.

As for `C/C=C\C(O)(c1nc2cc(Cl)c(Cl)cc2[nH]1)C(F)(F)F` (stereo not drawn) [Compound 15, 2-(5,6-Dichloro-1H-benzoimidazol-2-yl)-1,1,1-trifluoro-cis-pent-3-en-2-ol], in the assay with ventral prostate, the Prostate antagonist result is “active”. Besides, in the assay on levator ani [1], the L.A. agonist result was “active”.

Turning to `C#CCC(O)(c1nc2cc(Cl)c(Cl)cc2n1C)C(F)(F)F` (single isomer, unassigned; (-)) [Compound 37, (−)-Enantiomer of 2-(5,6-Dichloro-1-methyl-1H-benzoimidazol-2-yl)-1,1,1-trifluoro-pent-4-yn-2-ol], in the assay on ventral prostate, the Prostate antagonist result was “inactive”. In addition, the L.A. agonist entry in the assay with levator ani [1] is recorded as “active”.

On to `C=CCC(O)(c1nc2cc(C#N)c(C(F)(F)F)cc2[nH]1)C(F)(F)F` (stereo not shown) [Compound 38, 2-(1-Hydroxy-1-trifluoromethyl-but-3-enyl)-6-trifluoromethyl-1H-benzoimidazole-5-carbonitrile], for which the Prostate antagonist result with ventral prostate is reported as “active”. For the same molecule, in the assay with levator ani [1], the L.A. agonist entry is “active”.

Consider `N#CCC(O)(c1nc2cc(Cl)c(Cl)cc2[nH]1)C(F)(F)F` (stereo not shown) [Compound 7, 3-(5,6-Dichloro-1H-benzoimidazol-2-yl)-4,4,4-trifluoro-3-hydroxy-butyronitrile], for which the Prostate antagonist result with ventral prostate is “inactive”. In the assay on levator ani [1], the L.A. agonist entry was “active”.

Turning to `C=C=CC(O)(c1nc2cc(Cl)c(Cl)cc2[nH]1)C(F)(F)F` (stereo not shown) [Compound 3, 2-(5,6-Dichloro-1H-benzoimidazol-2-yl)-1,1,1-trifluoro-penta-3,4-dien-2-ol], the Prostate antagonist entry in the assay on ventral prostate is reported as “active”. Besides, the L.A. agonist result with levator ani [1] is “active”.

As for `C=C=CC(O)(c1nc2cc(Cl)c(Cl)cc2[nH]1)C(F)(F)F` (single isomer, unassigned; (+)) [Compound 31, (+)-Enantiomer of 2-(5,6-Dichloro-1H-benzoimidazol-2-yl)-1,1,1-trifluoro-penta-3,4-dien-2-ol], in the assay on ventral prostate, the Prostate antagonist entry was “active”. The L.A. agonist entry with levator ani [1] is given as “active”.

As to `FC(F)(F)C1(c2nc3cc(Cl)c(Cl)cc3[nH]2)CCCO1` (stereo not shown) [Compound 46, 5,6-Dichloro-2-(2-trifluoromethyl-tetrahydro-furan-2-yl)-1H-benzoimidazole], the Prostate antagonist result with ventral prostate was “active”. For the same molecule, the L.A. agonist result in the assay on levator ani [1] is recorded as “active”.

For `C=CC(O)(c1nc2cc(Cl)c(Cl)cc2[nH]1)C(F)(F)F` (single isomer, unassigned; (+)) [Compound 43, (+)-2-(5,6-dichloro-1H-benzoimidazol-2-yl)-1,1,1-trifluoro-but-3-en-2-ol], the Prostate antagonist entry in the assay with ventral prostate is “inactive”. The L.A. agonist entry in the assay on levator ani [1] is reported as “active”.

On to `OCC#CC(O)(c1nc2cc(Cl)c(Cl)cc2[nH]1)C(F)(F)F` (stereo not shown) [Compound 17, 4-(5,6-Dichloro-1H-benzoimidazol-2-yl)-5,5,5-trifluoro-pent-2-yne-1,4-diol], for which, in the assay with levator ani [2], the L.A. agonist result was “inactive”. In addition, in the assay on ventral prostate, the Prostate antagonist entry was “active”.

Consider `C#CCC(O)(c1nc2cc(Cl)c(Cl)cc2[nH]1)C(F)(F)F` (stereo not shown) [Compound 2, 2-(5,6-Dichloro-1H-benzoimidazol-2-yl)-1,1,1-trifluoro-pent-4-yn-2-ol], for which the Prostate antagonist entry in the assay with ventral prostate is reported as “active”. The L.A. agonist result in the assay on levator ani [1] is “active”.

Consider `OC(CC#Cc1ccccc1)(c1nc2cc(Cl)c(Cl)cc2[nH]1)C(F)(F)F` (stereo not shown) [Compound 34, 2-(5,6-Dichloro-1H-benzoimidazol-2-yl)-1,1,1-trifluoro-5-phenyl-pent-4-yn-2-ol], for which the L.A. agonist entry in the assay with levator ani [2] is “inactive”. Besides, the Prostate antagonist entry with ventral prostate was “inactive”.

In the case of `C=C(C)C(O)(c1nc2cc(Cl)c(Cl)cc2[nH]1)C(F)(F)F` (stereo not shown) [Compound 9, 2-(5,6-Dichloro-1H-benzoimidazol-2-yl)-1,1,1-trifluoro-3-methyl-but-3-en-2-ol], the L.A. agonist entry with levator ani [2] was “inactive”. For the same molecule, the Prostate antagonist entry in the assay on ventral prostate was “active”.

`FC(F)(F)C1(c2nc3cc(Cl)c(Cl)cc3[nH]2)C=CCO1` (stereo not shown) [Compound 45, 5,6-Dichloro-2-(2-trifluoromethyl-2,5-dihydro-furan-2-yl)-1H-benzoimidazole]: the Prostate antagonist result with ventral prostate is “inactive”. Also, the L.A. agonist result in the assay with levator ani [1] is “active”.

In the case of `C=C=CC(O)(c1nc2cc(Cl)c(Cl)cc2[nH]1)C(F)(F)F` (single isomer, unassigned; (-)) [Compound 32, (−)-Enantiomer of 2-(5,6-Dichloro-1H-benzoimidazol-2-yl)-1,1,1-trifluoro-penta-3,4-dien-2-ol], in the assay with levator ani [2], the L.A. agonist result is “inactive”. Also, the Prostate antagonist result in the assay with ventral prostate was “active”.

For `C=C=C(C)C(O)(c1nc2cc(C#N)c(C(F)(F)F)cc2[nH]1)C(F)(F)F` (stereo not shown) [Compound 41, 2-(1-Hydroxy-2-methyl-1-trifluoromethyl-buta-2,3-dienyl)-6-trifluoromethyl-1H-benzoimidazole-5-carbonitrile], the L.A. agonist result in the assay on levator ani [2] was “inactive”. Moreover, the Prostate antagonist entry with ventral prostate is given as “active”.

Take `FC(F)(F)C1(c2nc3cc(Cl)c(Cl)cc3n2Cc2ccccn2)OCCO1` [Compound 48]: the L.A. agonist entry in the assay with levator ani [2] was “inactive”. Further, the Prostate antagonist result in the assay with ventral prostate is “inactive”.

Consider `OC(c1ccccc1)(c1nc2cc(Cl)c(Cl)cc2[nH]1)C(F)(F)F` (stereo not shown) [Compound 10, 1-(5,6-Dichloro-1H-benzoimidazol-2-yl)-2,2,2-trifluoro-1-phenyl-ethanol], for which the L.A. agonist entry in the assay on levator ani [2] was “inactive”. Moreover, the Prostate antagonist entry in the assay on ventral prostate is listed as “active”.

As to `C=CC(c1ccccc1)C(O)(c1nc2cc(Cl)c(Cl)cc2[nH]1)C(F)(F)F` (stereo not shown) [Compound 28, 2-(5,6-Dichloro-1H-benzoimidazol-2-yl)-1,1,1-trifluoro-3-phenyl-pent-4-en-2-ol], in the assay on levator ani [2], the L.A. agonist entry is “inactive”. Also, the Prostate antagonist entry with ventral prostate was “active”.

For `C#CCC(O)(c1nc2cc(Cl)c(Cl)cc2n1C)C(F)(F)F` (single isomer, unassigned; (+)) [Compound 36, (+)-Enantiomer of 2-(5,6-Dichloro-1-methyl-1H-benzoimidazol-2-yl)-1,1,1-trifluoro-pent-4-yn-2-ol], the L.A. agonist result in the assay on levator ani [2] was “inactive”. Also, the Prostate antagonist result with ventral prostate was “inactive”.
